Source: US9676714B2, “Sulfonylindole derivatives and method for preparing the same” (Daewoong Pharmaceutical Co., Ltd., priority 2013, dated 2017)
Counter-ions that a name gives are not always drawn.

Molecular target: T1, proton pump (H+/K+-ATPase) (Sus scrofa, UniProt P19156)
T1 construct: Gastric vesicles were prepared from hog stomach via centrifugal separation; from tissue; host or cells: hog stomach (gastric vesicles, method of Rabon et al. 1988)
Test: Measurement of inhibitory effects on proton pump (H+/K+-ATPase) activities
Format: biochemical
Conditions: hog gastric vesicles, K+-specific H+/K+-ATPase activity, Tris-HCl buffer pH 7.4, 37° C. for 40 minutes, malachite green Pi readout
Procedure, shortened: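 Hog gastric vesicles in 60 mmol/l Tris-HCl pH 7.4 with 0.5% DMSO were treated with compounds at room temperature; reaction was started with 10 μl of 10 mmol/l ATP stock. Released Pi was read at 570 nm, K+-specific activity taken as the ±K+ difference. IC50 from 4-parameter logistic fit.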

T1 sequence (P19156 whole entry): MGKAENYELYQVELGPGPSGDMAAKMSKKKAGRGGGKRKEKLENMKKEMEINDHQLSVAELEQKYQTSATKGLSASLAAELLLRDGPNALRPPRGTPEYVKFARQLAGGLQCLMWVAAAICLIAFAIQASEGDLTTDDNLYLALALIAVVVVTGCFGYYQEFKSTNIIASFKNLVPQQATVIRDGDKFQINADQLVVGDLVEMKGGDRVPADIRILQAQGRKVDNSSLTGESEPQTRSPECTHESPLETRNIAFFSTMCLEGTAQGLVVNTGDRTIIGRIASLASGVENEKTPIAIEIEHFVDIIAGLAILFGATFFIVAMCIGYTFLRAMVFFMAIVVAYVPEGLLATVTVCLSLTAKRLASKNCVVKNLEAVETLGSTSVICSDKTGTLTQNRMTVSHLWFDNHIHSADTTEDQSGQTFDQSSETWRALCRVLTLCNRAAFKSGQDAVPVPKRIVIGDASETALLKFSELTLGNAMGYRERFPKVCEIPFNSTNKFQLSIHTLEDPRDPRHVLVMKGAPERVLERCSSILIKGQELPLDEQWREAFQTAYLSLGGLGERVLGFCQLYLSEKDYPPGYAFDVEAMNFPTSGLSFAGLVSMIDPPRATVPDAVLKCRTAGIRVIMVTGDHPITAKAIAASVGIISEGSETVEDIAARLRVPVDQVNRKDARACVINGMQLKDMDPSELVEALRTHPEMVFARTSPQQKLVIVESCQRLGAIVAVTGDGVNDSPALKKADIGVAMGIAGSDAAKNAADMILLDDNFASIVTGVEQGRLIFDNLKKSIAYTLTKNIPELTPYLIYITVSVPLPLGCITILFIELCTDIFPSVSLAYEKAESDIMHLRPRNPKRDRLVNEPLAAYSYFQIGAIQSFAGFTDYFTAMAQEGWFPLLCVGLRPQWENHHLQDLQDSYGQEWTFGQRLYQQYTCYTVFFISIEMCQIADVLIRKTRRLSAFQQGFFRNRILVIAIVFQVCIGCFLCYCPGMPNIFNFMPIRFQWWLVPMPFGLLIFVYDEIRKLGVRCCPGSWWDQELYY
T1 sequence (P18434 whole entry partner): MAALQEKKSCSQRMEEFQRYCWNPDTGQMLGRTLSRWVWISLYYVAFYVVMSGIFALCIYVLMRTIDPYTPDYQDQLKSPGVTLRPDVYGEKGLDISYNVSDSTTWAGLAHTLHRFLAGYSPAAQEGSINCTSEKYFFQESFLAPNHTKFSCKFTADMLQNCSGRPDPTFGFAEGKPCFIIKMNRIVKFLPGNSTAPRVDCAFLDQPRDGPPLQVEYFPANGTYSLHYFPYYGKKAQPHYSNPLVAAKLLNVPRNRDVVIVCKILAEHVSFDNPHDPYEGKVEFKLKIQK

| SMILES | IC50 [nM] |
| --- | --- |
| CNCc1cn(S(=O)(=O)c2cccc(OC)c2)c2cc(Nc3ccc(C)c(F)c3F)ccc12 [Example 170, N-(2,3-difluoro-4-methylphenyl)-1-((3-methoxyphenyl)sulfonyl)-3-((methylamino)methyl)-1H-indol-6-amine hydrochloride] | 260 |
| CNCc1cn(S(=O)(=O)c2cccc(OC)c2)c2cc(Nc3ccc(C)nc3F)ccc12 [Example 171, N-(2-fluoro-6-methylpyridin-3-yl)-1-((3-methoxyphenyl)sulfonyl)-3-((methylamino)methyl)-1H-indol-6-amine hydrochloride] | 630 |
| CNCc1cn(S(=O)(=O)c2cccc(OC)c2)c2cc(Nc3ccc(C)nc3Cl)ccc12 [Example 172, N-(2-chloro-6-methylpyridin-3-yl)-1-((3-methoxyphenyl)sulfonyl)-3-((methylamino)methyl)-1H-indol-6-amine hydrochloride] | 1500 |
| CNCc1cn(S(=O)(=O)c2cccc(OC)c2)c2cc(Nc3ccc(OC)nc3Cl)ccc12 [Example 173, N-(2-chloro-6-methoxypyridin-3-yl)-1-((3-methoxyphenyl)sulfonyl)-3-((methylamino)methyl)-1H-indol-6-amine hydrochloride] | 1190 |
| CNCc1cn(S(=O)(=O)c2cccc(OC(F)F)c2)c2cc(Nc3ccc(C)cc3F)ccc12 [Example 174, 1-((3-(difluoromethoxy)phenyl)sulfonyl)-N-(2-fluoro-4-methylphenyl)-3-((methylamino)methyl)-1H-indol-6-amine hydrochloride] | 20 |
| CNCc1cn(S(=O)(=O)c2cccc(OC(F)F)c2)c2cc(Nc3ccc(C)cc3Cl)ccc12 [Example 175, N-(2-chloro-4-methylphenyl)-1-((3-(difluoromethoxy)phenyl)sulfonyl)-3-((methylamino)methyl)-1H-indol-6-amine hydrochloride] | 150 |
| CNCc1cn(S(=O)(=O)c2cccc(OC(F)F)c2)c2cc(Nc3ccc(OC)cc3F)ccc12 [Example 178, 1-((3-(difluoromethoxy)phenyl)sulfonyl)-N-(2-fluoro-4-methoxyphenyl)-3-((methylamino)methyl)-1H-indol-6-amine hydrochloride] | 610 |
| CNCc1cn(S(=O)(=O)c2cccc(OC(F)F)c2)c2cc(Nc3ccc(C)c(F)c3F)ccc12 [Example 180, N-(2,3-difluoro-4-methylphenyl)-1-((3-(difluoromethoxy)phenyl)sulfonyl)-3-((methylamino)methyl)-1H-indol-6-amine hydrochloride] | 270 |
| CNCc1cn(S(=O)(=O)c2cccc(OC(F)F)c2)c2cc(Nc3ccc(C)nc3F)ccc12 [Example 181, 1-((3-(difluoromethoxy)phenyl)sulfonyl)-N-(2-fluoro-6-methylpyridin-3-yl)-3-((methylamino)methyl)-1H-indol-6-amine hydrochloride] | 1280 |
| CNCc1cn(S(=O)(=O)c2cccc(C(F)(F)F)c2)c2cc(Nc3ccc(C)cc3Cl)ccc12 [Example 184, N-(2-chloro-4-methylphenyl)-3-((methylamino)methyl)-1-((3-(trifluoromethyl)phenyl)sulfonyl)-1H-indol-6-amine hydrochloride] | 360 |
| CNCc1cn(S(=O)(=O)c2cccc(C(F)(F)F)c2)c2cc(Nc3ccc(Cl)cc3C(F)(F)F)ccc12 [Example 186, N-(4-chloro-2-(trifluoromethyl)phenyl)-3-((methylamino)methyl)-1-((3-(trifluoromethyl)phenyl)sulfonyl)-1H-indol-6-amine hydrochloride] | 410 |
| CNCc1cn(S(=O)(=O)c2cccc(C(F)(F)F)c2)c2cc(Nc3ccc(C(F)(F)F)cc3Cl)ccc12 [Example 187, N-(2-chloro-4-(trifluoromethyl)phenyl)-3-((methylamino)methyl)-1-((3-(trifluoromethyl)phenyl)sulfonyl)-1H-indol-6-amine hydrochloride] | 980 |
| CNCc1cn(S(=O)(=O)c2cccc(C(F)(F)F)c2)c2cc(Nc3ccc(OC(F)(F)F)cc3C)ccc12 [Example 189, N-(2-methyl-4-(trifluoromethoxy)phenyl)-3-((methylamino)methyl)-1-((3-(trifluoromethyl)phenyl)sulfonyl)-1H-indol-6-amine hydrochloride] | 650 |
| CNCc1cn(S(=O)(=O)c2cccc(C(F)(F)F)c2)c2cc(Nc3ccc(OC(F)(F)F)cc3OC)ccc12 [Example 190, N-(2-methoxy-4-(trifluoromethoxy)phenyl)-3-((methylamino)methyl)-1-((3-(trifluoromethyl)phenyl)sulfonyl)-1H-indol-6-amine hydrochloride] | 440 |
| CNCc1cn(S(=O)(=O)c2cccc(C(F)(F)F)c2)c2cc(Nc3ccc(C)c(F)c3F)ccc12 [Example 191, N-(2,3-difluoro-4-methylphenyl)-3-((methylamino)methyl)-1-((3-(trifluoromethyl)phenyl)sulfonyl)-1H-indol-6-amine hydrochloride] | 70 |
| CNCc1cn(S(=O)(=O)c2cccc(C(F)(F)F)c2)c2cc(Nc3ccc(C)nc3Cl)ccc12 [Example 192, N-(2-chloro-6-methylpyridin-3-yl)-3-((methylamino)methyl)-1-((3-(trifluoromethyl)phenyl)sulfonyl)-1H-indol-6-amine hydrochloride] | 60 |
| CNCc1cn(S(=O)(=O)c2cccc(C(F)(F)F)c2)c2cc(Nc3ccc(Cl)nc3Cl)ccc12 [Example 193, N-(2,6-dichloropyridin-3-yl)-3-((methylamino)methyl)-1-((3-(trifluoromethyl)phenyl)sulfonyl)-1H-indol-6-amine hydrochloride] | 580 |
| CNCc1cn(S(=O)(=O)c2cccc(C(F)(F)F)c2)c2cc(Nc3ccc(C(F)(F)F)nc3Cl)ccc12 [Example 195, N-(2-chloro-6-(trifluoromethyl)pyridin-3-yl)-3-((methylamino)methyl)-1-((3-(trifluoromethyl)phenyl)sulfonyl)-1H-indol-6-amine hydrochloride] | 1270 |

Results, then the compound that gave them:

| IC50 [nM] | SMILES |
| --- | --- |
| 790 | CNCc1cn(S(=O)(=O)c2cccc(OC)c2)c2cc(Nc3ccc(OC(F)(F)F)cc3C)ccc12 [Example 168, 1-((3-methoxyphenyl)sulfonyl)-N-(2-methyl-4-(trifluoromethoxy)phenyl)-3-((methylamino)methyl)-1H-indol-6-amine hydrochloride] |
| 80 | CNCc1cn(S(=O)(=O)c2cccc(OC)c2)c2cc(Nc3ccc(OC(F)(F)F)cc3Cl)ccc12 [Example 169, N-(2-chloro-4-(trifluoromethoxy)phenyl)-1-((3-methoxyphenyl)sulfonyl)-3-((methylamino)methyl)-1H-indol-6-amine hydrochloride] |
| 370 | CNCc1cn(S(=O)(=O)c2cccc(OC(F)F)c2)c2cc(Nc3ccc(Cl)cc3F)ccc12 [Example 176, N-(4-chloro-2-fluorophenyl)-1-((3-(difluoromethoxy)phenyl)sulfonyl)-3-((methylamino)methyl)-1H-indol-6-amine hydrochloride] |
| 1410 | CNCc1cn(S(=O)(=O)c2cccc(OC(F)F)c2)c2cc(Nc3ccc(Cl)cc3C(F)(F)F)ccc12 [Example 177, N-(4-chloro-2-(trifluoromethyl)phenyl)-1-((3-(difluoromethoxy)phenyl)sulfonyl)-3-((methylamino)methyl)-1H-indol-6-amine hydrochloride] |
| 330 | CNCc1cn(S(=O)(=O)c2cccc(OC(F)F)c2)c2cc(Nc3ccc(OC(F)(F)F)cc3C)ccc12 [Example 179, 1-((3-(difluoromethoxy)phenyl)sulfonyl)-N-(2-methyl-4-(trifluoromethoxy)phenyl)-3-((methylamino)methyl)-1H-indol-6-amine hydrochloride] |
| 590 | CNCc1cn(S(=O)(=O)c2cccc(C(F)(F)F)c2)c2cc(Nc3ccc(C)cc3F)ccc12 [Example 183, N-(2-fluoro-4-methylphenyl)-3-((methylamino)methyl)-1-((3-(trifluoromethyl)phenyl)sulfonyl)-1H-indol-6-amine hydrochloride] |
| 1000 | CNCc1cn(S(=O)(=O)c2cccc(C(F)(F)F)c2)c2cc(Nc3ccc(Cl)cc3F)ccc12 [Example 185, N-(4-chloro-2-fluorophenyl)-3-((methylamino)methyl)-1-((3-(trifluoromethyl)phenyl)sulfonyl)-1H-indol-6-amine hydrochloride] |
| 400 | CNCc1cn(S(=O)(=O)c2cccc(C(F)(F)F)c2)c2cc(Nc3ccc(OC)cc3F)ccc12 [Example 188, N-(2-fluoro-4-methoxyphenyl)-3-((methylamino)methyl)-1-((3-(trifluoromethyl)phenyl)sulfonyl)-1H-indol-6-amine hydrochloride] |
| 390 | CNCc1cn(S(=O)(=O)c2cccc(OC(F)(F)F)c2)c2cc(Nc3ccc(C)cc3Cl)ccc12 [Example 196, N-(2-chloro-4-methylphenyl)-3-((methylamino)methyl)-1-((3-(trifluoromethoxy)phenyl)sulfonyl)-1H-indol-6-amine hydrochloride] |
| 850 | CNCc1cn(S(=O)(=O)c2cccc(OC(F)(F)F)c2)c2cc(Nc3ccc(Cl)cc3F)ccc12 [Example 197, N-(4-chloro-2-fluorophenyl)-3-((methylamino)methyl)-1-((3-(trifluoromethoxy)phenyl)sulfonyl)-1H-indol-6-amine hydrochloride] |
| 160 | CNCc1cn(S(=O)(=O)c2cccc(OC(F)(F)F)c2)c2cc(Nc3ccc(C(F)(F)F)cc3Cl)ccc12 [Example 198, N-(2-chloro-4-(trifluoromethyl)phenyl)-3-((methylamino)methyl)-1-((3-(trifluoromethoxy)phenyl)sulfonyl)-1H-indol-6-amine hydrochloride] |
